Test results reported in patent publication US11220524B2, “Selective inhibitors of protein arginine methyltransferase 5 (PRMT5)” (PRELUDE THERAPEUTICS, INCORPORATED, priority 2017, dated 2022).

Tests used:
[1] = tested on: Granta-519 mouse xenograft; experiment: Tumor growth inhibition and body weight in Granta-519 mouse xenograft model; format: in vivo
Experimental: (§1) In Vivo Pharmacodynamic Effect of Example 36 in Granta-519 Mouse Xenograft Model.
(§2) Granta-519 cells was maintained in DMEM medium supplemented with 10% fetal bovine serum and 2 mM L-Glutamine at 37° C. in an atmosphere of 5% C02 in air. Cells in exponential growth phase were harvested and 1×10^7 cells in 0.1 mL of PBS with Matrigel (1:1) were injected subcutaneously at the right lower flank region of each mouse for tumor development. The treatments were started when the mean tumor size reaches approximately 300-400 mm^3. […] Example 36 or vehicle (0.5% methylcellulose+0.1% Tween 80) were administered orally (BID for Example 36, QD for vehicle) at a dose of 25 mg/kg for 6 days. Body weights and tumor size were measured thrice weekly after randomization. Animals were euthanized 4 hours after last dosing on day 6, and blood and tumor samples were collected for analysis.
Example 92 or vehicle (0.5% Na CMC+0.5% Tween80, suspension) were administered orally (QD for Example 92, QD for vehicle) at a dose of 50 mg/kg for 14 days. Body weights and tumor size were measured every 3 to 4 days after randomization. Animals were euthanized 4 hours after last dosing, and blood and tumor samples were collected for analysis.

PRMT5/MEP50 complex = PRMT5/MEP50 complex (Homo sapiens (Human), UniProt O14744); experiment: Biochemical assay: PRMT5/MEP50 methylation of histone H2A with 3H-SAM, filter plate scintillation; details: biochemical potency; read-out: PRTMT5/MEP50 IC50
Procedure, shortened: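 5 nM PRMT5/MEP50 preincubated with compound 15–20 min at room temperature, with 5 μM histone H2A as substrate; reaction started with 1 μM 3H-SAM and run 60 min at 30 °C. TCA-stopped, filter-captured methylation counted by scintillation; IC50 from 4-parameter Hill fit.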

[2] = tested on: Symmetric Di-Methyl Arginine (sDMA) in Granta-519 cells; experiment: Western blot for symmetric di-methyl arginine (sDMA) marks in Granta cells, 3 days treatment; format: cell-based; details: Homo sapiens, Granta-519, 72 h; Granta cell line, 3 days
[3] = tested on: sDMA in Granta-519 tumors; experiment: In vivo pharmacodynamic effect: sDMA levels in tumor samples of Granta-519 mouse xenograft model; details: 30 mg/kg, separate experiment
Experimental: as §1, §2
To measure sDMA levels in tumor samples, tumors from each mouse were weighted and homogenized in RIPA buffer supplemented with protease inhibitor (cOmplete™, EDTA-free Protease Inhibitor Cocktail, Roche). […] Total protein concentrations of lysate were determined by BCA assay (ThermoFisher Scientific, Catalog #: 23225). Equal amount of total proteins from each tumor were separated on SDS-PAGE gel, and sDMA levels were determined by WB as described previously. […]

[4] = In vivo pharmacokinetic study in rat (i.v. and p.o.); details: rat
Experimental: In Vivo Pharmacokinetic Properties of Example 36.
In a rat (SD, male, non-fasted) non-crossover cassette PK study, Example 36 was dosed at 0.25 mg/kg via i.v. administration (N=3) and 2 mg/kg via oral gauge (p.o.) (N=3) with other 3 compounds.
In Vivo Pharmacokinetic Properties of Example 92.
In a rat (SD, male, non-fasted) non-crossover PK study, Example 92 was dosed at 1 mg/kg (DMA: 20% HPBCD=5:95, solution) via i.v. administration (N=2) and 1 mg/kg (0.5% Na CMC+0.5% Tween80, solution) via oral gauge (p.o.) (N=2).

Granta-519 cells = experiment: Cell proliferation assay on Granta-519 cells (CCK-8, day 10); format: cell-based; details: Homo sapiens, Granta-519, 240 h, Granta cell line, read-out: Prolif. IC50
Experimental: Cell Proliferation Assay to Determine IC50 on Granta-519 Cells
Granta-519 cells were maintained in PRMI 1640 (Corning Cellgro, Catalog #: 10-040-CV) medium supplemented with 10% v/v FBS (GE Healthcare, Catalog #: SH30910.03). Compounds were dissolved in DMSO to make 10 mM stocks and stored at −20° C. Nine-point, 3-fold serial dilutions were made with DMSO with top concentration at 1 mM (working stocks).
On day of experiment, compound working stocks were further diluted at 1:50 with fresh medium in 96 well plate, and 10 μL of diluted drugs were added to a new 96 well plate for proliferation assay. Cells growing at exponential phase were spun down at 1500 rpm for 4 min and resuspend in fresh medium to reach a density of 0.5×10^6 cells/ml. 200 ul of cells were added to 96 well plate containing diluted drugs and incubated for 3 days. DMSO was used a vehicle control.
One day 3, 10 μL of Cell Counting Kit-8 (CCK-8, Jojindo, CK04-13) solution was added to a new 96 well plate. Cells incubated with drugs for 3 days were resuspended by pipetting up and down, and 100 μL of cells were transferred to 96 well plate containing CCK-8 reagent to measure viable cells. Plates were incubated in C02 incubator for 2 hours and OD450 values were measured with a microplate reader (iMark microplate reader, Bio-Rad).
For re-plating, compound working stocks were diluted at 1:50 with fresh medium and 10 μL of diluted drugs were added to anew 96 well plate. Cells from Day 3plate (50 ul) were added to 96 well plate containing fresh drug and additional 150 of fresh medium was added to reach 200 ul volume. Plate was returned to CO2incubator and incubated for 3more days. Viable cells measurement and re-plating were repeated on day 6, and the final viable cells measurement was taken on day 10.
Percentage of viable cells, relative to DMSO vehicle control, were calculated and plotted in Graphpad Prism ([Inhibitor] vs. normalized response-Variable slope) to determine proliferation IC50 values on day 10.

Sequence of PRMT5/MEP50 complex (O14744 whole entry): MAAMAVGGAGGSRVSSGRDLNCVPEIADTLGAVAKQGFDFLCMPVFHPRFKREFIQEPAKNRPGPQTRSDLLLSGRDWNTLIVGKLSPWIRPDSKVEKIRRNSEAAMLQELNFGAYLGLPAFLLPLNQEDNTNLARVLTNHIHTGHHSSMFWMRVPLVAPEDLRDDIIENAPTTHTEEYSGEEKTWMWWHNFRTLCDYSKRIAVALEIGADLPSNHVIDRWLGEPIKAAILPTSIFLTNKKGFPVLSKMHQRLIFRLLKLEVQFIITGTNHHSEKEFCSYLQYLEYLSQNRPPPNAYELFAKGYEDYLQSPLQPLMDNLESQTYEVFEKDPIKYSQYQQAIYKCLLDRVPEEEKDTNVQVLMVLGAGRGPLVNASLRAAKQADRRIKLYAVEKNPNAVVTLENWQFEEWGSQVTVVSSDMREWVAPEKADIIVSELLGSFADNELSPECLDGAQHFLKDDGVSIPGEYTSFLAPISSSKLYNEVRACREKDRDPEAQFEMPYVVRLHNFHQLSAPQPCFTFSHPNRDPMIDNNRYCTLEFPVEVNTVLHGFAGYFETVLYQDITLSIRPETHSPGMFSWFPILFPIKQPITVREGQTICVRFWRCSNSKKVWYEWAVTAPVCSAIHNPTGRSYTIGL
Sequence of PRMT5/MEP50 complex (Q9BQA1 whole entry partner): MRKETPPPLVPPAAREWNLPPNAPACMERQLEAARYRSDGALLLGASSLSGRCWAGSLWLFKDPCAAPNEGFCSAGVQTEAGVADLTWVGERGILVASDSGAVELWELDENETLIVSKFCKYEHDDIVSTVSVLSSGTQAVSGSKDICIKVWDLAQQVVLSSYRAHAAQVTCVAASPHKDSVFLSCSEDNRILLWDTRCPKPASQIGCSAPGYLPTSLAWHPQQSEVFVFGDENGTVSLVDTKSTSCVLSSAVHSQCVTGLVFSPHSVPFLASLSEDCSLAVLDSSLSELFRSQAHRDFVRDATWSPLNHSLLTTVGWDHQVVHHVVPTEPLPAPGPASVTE

- IC50 (PRMT5/MEP50 complex): 3.6 nM
- IC50 [2]: 8.2 nM
- metabolite detection in blood samples ([4]; after dosing of Example 92 at 1 mg/kg): detected in blood samples
- AUC0-inf of metabolite ([4]; metabolite after dosing of Example 92 at 1 mg/kg): 284 ng·kg·h/mL/mg
Structure (SMILES): C[C@@](O)(c1ccc(Cl)c(Cl)c1)[C@H]1O[C@@H](n2cnc3c(N)ncnc32)[C@H](O)[C@@H]1O [Example 1-C, (2R,3R,4S,5S)-2-(6-amino-9H-purin-9-yl)-5-((R)-1-(3,4-dichlorophenyl)-1-hydroxyethyl)tetrahydrofuran-3,4-diol]
- body weight gain ([1]; 30 mg/kg, separate experiment): 6%
- tumor growth inhibition ([1]; 30 mg/kg, separate experiment, N=5): 61%
- metabolite detection in blood and tumor samples ([1]; mouse xenograft, after Example 92 at 50 mg/kg QD for 14 days): detected in all blood and tumor samples
- sDMA in tumor samples [3]: no detectable amount of sDMA
- IC50 (Granta-519 cells): 44 nM
